Data on 1 compound can be found in ChEMBL document CHEMBL5678810.

The target of test [1] is Mitogen-activated protein kinase kinase kinase kinase 2 (Homo sapiens) (UniProt Q12851). Kind of test: Inhibition of T7 bacteriophage fused human MAP4K2 at 10 uM by KINOMEscan analysis relative to control.
Test [2] addresses LIM domain kinase 1 (Homo sapiens) (UniProt P53667). Put plainly: Inhibition of T7 bacteriophage fused human LIMK1 at 10 uM by KINOMEscan analysis relative to control; values are per cent of control.
The target in test [3] is Non-receptor tyrosine-protein kinase TNK1 (Homo sapiens) (UniProt Q13470). Put plainly: Inhibition of T7 bacteriophage fused human TNK1 at 10 uM by KINOMEscan analysis relative to control.
Non-receptor tyrosine-protein kinase TNK1 (Homo sapiens), sequence (Q13470 whole entry, the tested form may be a part): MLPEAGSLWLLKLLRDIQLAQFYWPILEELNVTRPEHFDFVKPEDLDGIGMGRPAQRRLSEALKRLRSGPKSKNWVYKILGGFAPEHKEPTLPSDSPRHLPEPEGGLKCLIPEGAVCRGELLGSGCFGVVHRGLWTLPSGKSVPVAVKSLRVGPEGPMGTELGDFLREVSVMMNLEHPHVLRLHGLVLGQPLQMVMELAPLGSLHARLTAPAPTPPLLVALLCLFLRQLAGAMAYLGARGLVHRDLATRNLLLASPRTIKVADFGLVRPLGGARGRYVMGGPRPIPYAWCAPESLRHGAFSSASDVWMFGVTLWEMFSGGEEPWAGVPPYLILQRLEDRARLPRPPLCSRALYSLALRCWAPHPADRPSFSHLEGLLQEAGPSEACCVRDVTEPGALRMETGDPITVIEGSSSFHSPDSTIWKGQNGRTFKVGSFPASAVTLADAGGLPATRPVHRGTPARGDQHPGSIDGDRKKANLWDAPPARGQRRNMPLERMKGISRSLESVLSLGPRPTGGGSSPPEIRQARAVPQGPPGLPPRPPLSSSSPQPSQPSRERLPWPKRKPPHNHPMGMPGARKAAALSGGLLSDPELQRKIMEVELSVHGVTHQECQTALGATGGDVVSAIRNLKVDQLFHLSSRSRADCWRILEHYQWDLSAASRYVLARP

LIM domain kinase 1 (Homo sapiens), sequence (P53667 whole entry, looked up, the tested form may be a part): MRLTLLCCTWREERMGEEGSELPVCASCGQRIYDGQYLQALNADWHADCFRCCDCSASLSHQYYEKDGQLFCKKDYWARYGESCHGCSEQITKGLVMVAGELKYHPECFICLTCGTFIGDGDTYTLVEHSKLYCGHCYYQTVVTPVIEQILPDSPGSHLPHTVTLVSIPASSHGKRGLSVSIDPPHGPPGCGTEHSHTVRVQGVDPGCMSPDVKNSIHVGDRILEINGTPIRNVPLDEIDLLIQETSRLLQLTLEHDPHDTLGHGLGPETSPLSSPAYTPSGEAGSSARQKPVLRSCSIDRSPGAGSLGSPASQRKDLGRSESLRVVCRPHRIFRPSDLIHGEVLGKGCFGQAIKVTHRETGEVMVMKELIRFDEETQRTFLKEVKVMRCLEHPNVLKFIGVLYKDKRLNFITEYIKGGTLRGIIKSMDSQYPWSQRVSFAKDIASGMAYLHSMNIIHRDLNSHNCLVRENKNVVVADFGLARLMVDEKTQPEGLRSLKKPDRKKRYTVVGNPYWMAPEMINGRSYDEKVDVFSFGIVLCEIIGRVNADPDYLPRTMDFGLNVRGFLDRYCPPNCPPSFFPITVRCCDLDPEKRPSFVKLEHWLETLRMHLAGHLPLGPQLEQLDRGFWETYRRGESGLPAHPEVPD
Mitogen-activated protein kinase kinase kinase kinase 2 (Homo sapiens), sequence (Q12851 whole entry, the tested form may be a part): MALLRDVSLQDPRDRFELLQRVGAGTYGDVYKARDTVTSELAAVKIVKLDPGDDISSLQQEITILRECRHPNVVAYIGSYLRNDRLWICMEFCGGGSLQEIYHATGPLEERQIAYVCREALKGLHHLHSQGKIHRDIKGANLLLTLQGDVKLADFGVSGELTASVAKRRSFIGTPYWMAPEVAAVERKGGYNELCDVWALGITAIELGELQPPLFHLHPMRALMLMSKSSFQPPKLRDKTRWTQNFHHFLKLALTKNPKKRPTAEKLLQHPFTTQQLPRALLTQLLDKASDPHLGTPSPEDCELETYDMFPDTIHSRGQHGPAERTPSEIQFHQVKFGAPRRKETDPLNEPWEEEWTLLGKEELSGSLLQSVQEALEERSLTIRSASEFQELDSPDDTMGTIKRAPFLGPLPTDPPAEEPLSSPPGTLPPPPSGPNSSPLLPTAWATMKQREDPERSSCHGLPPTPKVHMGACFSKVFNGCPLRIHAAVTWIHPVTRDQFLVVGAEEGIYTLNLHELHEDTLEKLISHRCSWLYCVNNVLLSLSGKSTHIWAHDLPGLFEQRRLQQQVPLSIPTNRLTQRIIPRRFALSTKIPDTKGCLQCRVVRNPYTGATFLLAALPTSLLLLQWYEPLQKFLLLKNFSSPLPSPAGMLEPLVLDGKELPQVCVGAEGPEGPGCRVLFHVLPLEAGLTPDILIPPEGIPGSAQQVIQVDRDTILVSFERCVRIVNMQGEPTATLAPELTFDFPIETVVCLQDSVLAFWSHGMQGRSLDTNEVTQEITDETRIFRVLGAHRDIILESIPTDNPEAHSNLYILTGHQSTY

In the case of `COc1cc(N2CCC(N3CCN(C)CC3)CC2)ccc1Nc1ncc2c(n1)N(C)c1ccccc1C(=O)N2C`, the inhibition – broadly, the drop in the measured response relative to a control, in per cent – in test [1] is 100%; in test [3], 2.8%. In addition, the residual activity (in general, the signal under treatment as a percentage of the control signal) in test [2] worked out at 95%.
